Measured values from article PMC11234452, “HydrogelFinder: A Foundation Model for Efficient Self‐Assembling Peptide Discovery Guided by Non‐Peptidal Small Molecules” (Advanced Science, 2024).
Residues, ends and D or L forms follow the SMILES beside them.

Legend:
Type in all cases: physicochemical
[1] = Hydrogelation test, inverted tube method; settings: for pH (of hydrogelation) / Conc. (hydrogelation concentration): 37 °C overnight; for Conc. (hydrogelation concentration): pH adjusted with NaOH or HCl
Experimental: We subsequently evaluated their gelation capability (Figure S2, Supporting Information). After purification by HPLC, the obtained compounds were dissolved in water and the pH of the solution was adjusted to trigger self‐assembly and hydrogelation.
Observing gel behavior in an inverted test tube is a rapid and facile approach to determine whether a dissolved peptide formed a gel.
All compounds were placed in a glass tube (diameter 10 mm) and first dissolved in D.I water, sonicated for 5 min and putted on ice for 30 min. Then added 2x PBS buffer (5.4 mM KCl, 20 mM Na2HPO4, 4 mM KH2PO4) or D.I water to reach the final concentration of 1.0 wt%. pH was adjusted with NaOH or HCl. The solutions were stored in 37 °C incubator overnight. Gelation was confirmed by the inverting method.

[2] = TEM of hydrogel matrix, nanofiber width; settings: uranyl formate stain, ImageJ, 30 measurements per picture
Experimental: These nanofibers were entangled with one another, forming a 3D‐network that comprised the hydrogel matrix (Figure 4B).
The sample was prepared by placing a drop of peptide solution on a 200‐mesh copper grid (Electron Microscopy China) and allowed to stand for 1.0 min, then blotted with filter paper. Subsequently a drop of 1.0% Uranyl Formate was placed on the grid and allowed to stand for 1–2 min, then blotted with a piece of filter paper and left to air dry. Images were taken with a JEOL JEM‐2100Plus at 80 kV accelerating voltage. By calculating the width of peptide, The image J was used to measure 30 times for 1 TEM picture, and to gather statistics with frequency.^[ [26] ^]

[3] = Oscillatory rheology, dynamic time sweep; settings: 37 °C, 15 mm parallel geometry, gap 0.5 mm, G′ consistently higher than G″
Experimental: To further explore the gelation properties and self‐assembly behavior of the candidate self‐assembling molecules, we carried out a series of biophysical characterization experiments.
All rheological experiments were performed on an Anton Parr equipped with a steel 15 mm parallel geometry tool. […] To avoid dehydration, a layer of silicon oil was applied around the edge of the sample at the start of the measurement. Dynamic strain sweep experiments were performed to ensure that the time‐sweep data was collected in the linear regime of strain. The dynamic strain sweep was performed varying the strain from 0.1 to 100% at a constant frequency (6 rad s^−1).

| Compound | pH (of hydrogelation) ([1]; buffer 1X PBS) | Conc. (hydrogelation concentration) ([1]; buffer 1X PBS) [wt%] | nanofiber width [2] | storage modulus (G′) at equilibrium [3] | gelation outcome / gel appearance ([1]; in water, pH adjusted (2–12)) | pH (of hydrogelation) ([1]; in water) | Conc. (hydrogelation concentration) ([1]; in water) [wt%] |
| --- | --- | --- | --- | --- | --- | --- | --- |
| NC(=O)[C@H](Cc1ccccc1)NC(=O)[C@H](CC(=O)O)NC(=O)CNC(=O)[C@H](CCC(=O)O)NC(=O)[C@H](Cc1ccccc1)NC(=O)[C@H](CCC(=O)O)NC(=O)[C@@H](N)Cc1c[nH]c2ccccc12 [compound 16] (H-WEFEGDF-NH2; N-terminus assumed) | 5.0 | 1.0 | 9–10 nm | 1254 Pa | – | – | – |
| EYVRFF [compound 368, self-assembling peptide EYVRFF] | 3.0 | 1.0 | – | – | opaque hydrogel | – | – |
| FFFVF‐NH2 [compound 322, self-assembling peptide FFFVF‐NH2] | – | – | approximately 14 nm | 21,393 Pa | – | 7.0 | 1.0 |
| FYGVF‐NH2 [compound 166, self-assembling peptide FYGVF‐NH2] | – | – | ~25 nm | – | – | 7.0 | 0.5 |
| VKVKAFIDDK [compound 560, self-assembling peptide […]] | 8.0 | 1.0 | – | – | – | – | – |
